Measured values taken from patent US20230416258A1, “BENZ[…], AND PREPARATION METHOD THEREFOR AND USE THEREOF” (CHINA PHARMACEUTICAL UNIVERSITY, priority 2020, published 2023).
Like-named read-outs stand apart in the source and are kept apart here.

Tests used:
KM mice = experiment: Test for drug-induced disappearance of righting reflex in mice; format: in vivo; conditions: single rapid bolus via tail vein
Method in brief: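 Female KM mice (18–25 g), randomly grouped, given a single rapid bolus via tail vein. Latency (administration to loss of righting reflex) and duration (loss to recovery) recorded.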

SD rats [1] = experiment: Test for drug-induced disappearance of righting reflex in rats; format: in vivo; conditions: single rapid bolus via tail vein
From the text: In anesthetic drug experiments, latency generally refers to the time from the start of administration to the loss of consciousness of the subject. The shorter latency is preferred, indicating a rapid onset of action after administration. The duration of anesthesia generally refers to the duration of time from the loss of consciousness to the restoration of consciousness of the subject. The duration of the drug will vary from animal model to animal species. Too long anesthesia may produce adverse cardiovascular and respiratory responses, such as adverse neurological effects to the subject, including sleepiness and dizziness; meanwhile, too short duration of anesthesia may affect the anesthesia effect, causing problems such as increase of anesthesia dosage during the operation.
SD rats (male, 200-280 g) were randomly grouped and subjected to a single administration by rapid bolus via the tail vein. The latency and duration of righting reflex in the rats were recorded.

SD rats [2] = experiment: Induction of anesthesia in rats by continuous infusion of drug for 20 min; format: in vivo; conditions: initial dose 20 mg/kg bolus, maintenance dose 0.2 (mg/kg)/min for 20 min, after infusion completed
Method: SD rats (male, 200-280 g) were randomly grouped and subjected to administration of an initial dose by rapid bolus via the tail vein, followed by a continuous infusion with a maintenance dose for 20 min.
After the infusion was completed, the duration of the righting reflex and the time from wake-up to recovery in rats were recorded.

[3] = system: GABA-activated Cl− current (GABAA receptor) in HEK 293T cells; experiment: Effect of drugs on GABA-activated current in cells by cell patch clamp; format: cell-based; conditions: for Enhancement percentage Emax for 2 μM GABA current (within 3-30 μM): corresponding concentration 20 μM
Method: Test compounds were dissolved at various concentrations in an extracellular buffer (140 mM NaCl, 4.7 mM KCl, 10 mM HEPES, 2 mM CaCl2), 10 mM glucose, 1 mM MgCl2, pH 7.4). HEK 293T cells were seeded on glass coverslips and cultured in DMEM media at 37° C. with 5% CO2 for 24 h. GABA Cl^− current was subjected to whole cell recording using an HEKA EPC 10USB patch clamp amplifier. 2 μM GABA was used for exciting Cl^− current, with the membrane potential clamped at −60 mV. The cells were treated with the test compound and 2 μM GABA simultaneously, and the induction effect on and Emax of Cl^− current in the same cell were recorded.
Maximum enhancement percentage Emax for 2 μM GABA current and corresponding concentration (μM): 100% for normal humans. The greater the percentage, the lower the corresponding concentration, and the greater the depth of anesthesia.

hCMEC/D3 cells = experiment: Rate of drug passing through in vitro blood-brain barrier (Transwell); format: in vitro ADME; conditions: hCMEC/D3 monolayer, compound 0.1 mg/mL
Method: A Transwell device (pore size: 5.0 μm) was placed in a 24-well cell culture well; then hCMEC/D3 cells at 1×10^5 cells/mL were transferred to the upper microwells of Transwell at 150 μL/well, and cell culture medium was added to the lower microwells. After the bottom was covered by a single layer of the cells, the medium in the wells was replaced with EBM-2 complete medium containing 1% FBS, and the cells were cultured in a CO2 incubator for 10 days until a fully dense single layer of the cells was formed. When a fully dense single layer of the cells was formed, the compound at 0.1 mg/mL was added to the lower medium, and after 5 min, the concentration of the compound in the upper medium was measured to calculate the permeability:
Pcompound%=Cupper compound/Clower compound×100%

[4] = In vitro plasma half-life of drug; format: in vitro ADME, SD rats; conditions: plasma (heparin sodium); SD rat plasma, 37° C.
Method: Preparation of plasma: after the SD rats were fasted and kept with water for 12 h, blood was collected through orbital venous plexus. The freshly collected blood was added into a centrifuge tube containing heparin sodium and centrifuged at 5000 rpm for 10 min at 4° C. The supernatant was slowly pipetted and subpackaged. Finally, the collected SD rat plasma was sealed, marked, and stored at −20° C. for later use.
Preparation of target compound sample: the target compound was precisely weighed by an analytical balance and prepared into a stock solution at a concentration of 2 mg/mL (solvent: Vacetone:VTween 80:Vnormal saline=1:1:3) for later use.
Determination of in vitro half-life of target compound sample: 20 μL of test compound stock solution and 80 μL of rat plasma were mixed uniformly. Nine parallel ep tubes were taken, marked as corresponding test tubes of 0 min, 1 min, 2 min, 3 min, 5 min, 10 min, 15 min, 20 min, and 30 min, respectively, and placed in a water bath at 37° C. for incubation for 0 min, 1 min, 2 min, 3 min, 5 min, 10 min, 15 min, 20 min, and 30 min, respectively. 50 μL of mixed solution were taken from the corresponding ep tube at each time point, and […] of acetonitrile was added for precipitating protein. The mixture was vortexed for 10 min using a mixer and centrifuged at 12000 rpm for 15 min. Then, the supernatant was centrifuged at 12000 rpm for 10 min. The optimal detection method for the target compound in the MRM mode was determined using Intellistat software in UPLC-MS/MS, the peak area of the corresponding mass spectrum was integrated, and the plasma half-life of the compound was calculated.

[5] = read-out: Positive enhancement EC50 (μM) for 2 μM GABA-induced current, −60 mV
[6] = 2 μM GABA, −60 mV, read-out: Positive enhancement EC50 (μM) for 2 μM GABA-induced current

Structure (SMILES) | Duration (KM mice; 30 mg/kg) [min] | Latency (KM mice; 30 mg/kg) [min] | Latency (SD rats [1]) [min] | Duration of anesthesia (SD rats [2]) [min] | Time from wake-up to recovery (SD rats [2]) [min] | EC50 [3, 5] [µM] | Enhancement percentage Emax for 2 μM GABA current (within 3-30 μM) ([3]; −60 mV) | In vitro blood-brain barrier, compound permeability at 5 min (hCMEC/D3 cells) [%] | half-life at 0.4 mg/mL [4] [s] | Duration (KM mice; 60 mg/kg) [min] | Latency (KM mice; 60 mg/kg) [min] | Duration (KM mice; 100 mg/kg) [min] | Latency (KM mice; 100 mg/kg) [min] | Duration (SD rats [1]) [min] | EC50 [3, 6] [µM]
COC(=O)CC[C@@H]1N=C(c2ccccc2F)c2cc(Br)ccc2-n2c(S)nnc21 [Compound 4, methyl (S)-3-(8-bromo-6-(2-fluorophenyl)-1-mercapto-4H-benzo[f][1,2,4]triazolo[4,3-a][1,4]diazepin-4-yl)propionate] | 9.21 | 0.88 | 0.35 | 5.21 | 15.6 | 0.69 | 252% (20 μM) | 68.6 | 104 |  |  |  |  |  | 
CCCSc1nnc2n1-c1ccc(Br)cc1C(c1ccccc1Cl)=N[C@H]2CCC(=O)OC [Compound 30, methyl (S)-3-(8-bromo-6-(2-chlorophenyl)-1-(propylthio)-4H-benzo[f][1,2,4]triazolo[4,3-a][1,4]diazepin-4-yl)propionate] | 7.44 | 0.42 |  |  |  |  |  |  | 27 |  |  |  |  |  | 
COC(=O)CC[C@@H]1N=C(c2ccccc2Cl)c2cc(Cl)ccc2-n2c(SCCO)nnc21 [Compound 32, methyl (S)-3-(8-chloro-6-(2-chlorophenyl)-1-((2-hydroxyethyl)thio)-4H-benzo[f][1,2,4]triazolo[4,3-a][1,4]diazepin-4-yl)propionate] | 20.73 | 0.73 |  |  |  |  |  |  | 16.2 |  |  |  |  |  | 
COC(=O)CC[C@@H]1N=C(c2ccccc2Cl)c2cc(Br)ccc2-n2c(SCCO)nnc21 [Compound 33, methyl (S)-3-(8-bromo-6-(2-chlorophenyl)-1-((2-hydroxyethyl)thio)-4H-benzo[f][1,2,4]triazolo[4,3-a][1,4]diazepin-4-yl)propionate] |  |  | 0.52 | 17.3 | 20.2 | 0.44 | 279% (20 μM) | 83.4 | 53.4 | 6.41 | 0.21 | 12.38 | 0.22 |  | 
COC(=O)CC[C@@H]1N=C(c2ccccc2Cl)c2cc([N+](=O)[O-])ccc2-n2c(SCCN)nnc21 [Compound 37, methyl (S)-3-(8-nitro-6-(2-chlorophenyl)-1-((2-aminoethyl)thio)-4H-benzo[f][1,2,4]triazolo[4,3-a][1,4]diazepin-4-yl) propionate] | 7.63 | 0.49 | 0.22 | 6.68 | 10.5 |  | 267% (20 μM) | 84.6 |  | 7.68 | 0.21 |  |  | 25.1 | 0.53
COC(=O)CC[C@@H]1N=C(c2ccccc2F)c2cc(Cl)ccc2-n2c(SCCN3CCOCC3)nnc21 [Compound 51, methyl (S)-3-(8-chloro-6-(2-fluorophenyl)-1-((2-morpholinoethyl)thio)-4H-benzo[f][1,2,4]triazolo[4,3-a][1,4]diazepin-4-yl)propionate] |  |  | 0.27 | 8.36 | 22.6 | 0.41 | 304% (20 μM) | 78.6 |  | 8.46 | 0.25 | 14.6 | 0.16 |  | 
COC(=O)CC[C@@H]1N=C(c2ccccc2Cl)c2cc(Cl)ccc2-n2c(SCCN3CCCC3)nnc21 [Compound 119, methyl (S)-3-(8-chloro-6-(2-chlorophenyl)-1-(2-((pyrrolidin-1-yl)ethyl)thio)-4H-benzo[f][1,2,4]triazolo[4,3-a][1,4]diazepin-4-yl)propionate] | 30.86 | 0.46 | 0.43 | 12.83 | 32.7 |  | 278% (20 μM) | 83.3 |  |  |  |  |  | 13.27 | 0.43
COC(=O)CC[C@@H]1N=C(c2ccccc2Cl)c2cc(Cl)ccc2-n2c(SCC(=O)N3CCN(C)CC3)nnc21 [Compound 129, methyl (S)-3-(8-chloro-6-(2-chlorophenyl)-1-((2-(4-methylpiperazin-1-yl)2-oxyethyl)thio)-4H-benzo[f][1,2,4]triazolo[4,3-a][1,4]diazepin-4-yl)propionate] | 13.27 | 0.56 | 0.37 | 10.22 | 17.7 |  | 257% (20 μM) | 75.9 |  |  |  |  |  | 17.28 | 0.42
COC(=O)CC[C@@H]1N=C(c2ccccc2Cl)c2cc(Cl)ccc2-n2c(Sc3cn(C)cn3)nnc21 [Compound 141, methyl (S)-3-(8-chloro-6-(2-chlorophenyl)-1-((1-methyl-1H-imidazol-4-yl)thio)-4H-benzo[f][1,2,4]triazolo[4,3-a][1,4]diazepin-4-yl)propionate] | 8.76 | 0.74 | 0.21 | 13.21 | 22.19 | 0.61 | 295% (20 μM) | 76.6 |  |  |  |  |  |  | 
COC(=O)CC[C@@H]1N=C(c2ccccc2F)c2cc(Br)ccc2-n2c1n[nH]c2=S [Tautomer of compound 4, methyl (S)-3-(8-bromo-6-(2-fluorophenyl)-1-thio-2,4-dihydro-1H-benzo[f][1,2,4]triazolo[4,3-a][1,4]diazepin-4-yl) propionate] | 2.95 | 0.38 | 0.48 | 4.84 | 10.3 |  | 238% (20 μM) | 75.8 |  |  |  |  |  | 15.4 | 0.65
